Reference: patent US9365851B2, “Spalt-like transcription factor 4 (SALL4) and uses thereof” (National University of Singapore, priority 2011, dated 2016)

Assays:
AML3 = test: Cellular uptake of FITC-labeled peptide; assay type: cell-based
Protocol: (§1) Cells were grown typically in 6 well plates (35 mm dish) to 50-70% confluence. Usually the transfect ion efficiency is somehow cell type specific. 2 mM peptide was diluted 4 times in PBS (2 ul+6 ul) (For FITC peptidedo not dilute the 2 mM stock). For each transfection reaction tube with 100 ul PBS+1 ul diluted peptide was set up. Chariot reagent was diluted 1:10 in ddH2O and for each transfection a 94 ul H2O tube+6 ul diluted Chariot was prepared (No master mix for more than 4 transfections). The 2 tubes were carefully mixed by pipetting up and down and incubated 30 min. at room temperature. Medium was aspirated from the dish (well) and cells were overlay with the mix. 400 ul serum free medium was added and cells were incubated further for 1 h 37 C (cell incubator). 500 ul complete medium (with 10% serum) was finally added. If cells are not very sensitive to serum starvation (cancer cell lines) 5% serum could be used.
(§2) Fluorescent and Confocal microscopy was performed on cells treated with FITC labeled peptides with or without of transfection reagent depending on the cell type. Cells were mounted on cover slips using mounting media with DAPI (Invitrogen) and in some cases cytoskeleton dye (Invitrogen).
(§3) In order to evaluate their cellular uptake and localization, the N terminus of these peptides was labeled with fluorescein isothiocyanate (FITC). Despite the net positive charge of these peptides, their uptake by the cells is cell-type specific. Some cell lines such as HL-60 (an AML cell line) allowed the peptide to enter the cells without any modification or carrier, and some cell lines were not penetrable at all. In order to achieve a similar level of peptide delivery in most cell types, a Chariot Transfection Reagent (Active Motif) was used as a peptide carrier, as directed from the manufacturer. All cell types used in the study described herein were subjected to individual evaluation of the percentage of the cells in which the peptide was delivered as well as the duration of time during which they sustained the labeled peptide in the cells. After Chariot treatment, confocal microscopy studies confirmed uptake of these peptides throughout the cell, including nuclei (as evidenced by DAPI overlay, FIG. 1B).

CD34+ = test: Cellular uptake of FITC-labeled peptide; assay type: cell-based
Protocol: as §1, §2, §3

HeLa = test: Cellular uptake of FITC-labeled peptide; assay type: cell-based
Protocol: as §1, §2, §3

KG1a = test: Cellular uptake of FITC-labeled peptide; assay type: cell-based
Protocol: as §1, §2, §3

MCF7 = test: Cellular uptake of FITC-labeled peptide; assay type: cell-based
Protocol: as §1, §2, §3

NP4 = test: Cellular uptake of FITC-labeled peptide; assay type: cell-based
Protocol: as §1, §2, §3

primary human AML cells = test: Xenotransplantation of shRNA-transduced primary human AML cells into NSG mice; assay type: in vivo
Description: The phenotype of wt peptide treatment was then compared with that of downregulation of SALL4 in primary AML cells. SALL4-specific shRNA (7210 and 7412, FIG. 6A) validated by previous studies were used for these experiments. FACS analysis with Annexin V/PI staining confirmed that there was a 2-fold increase in cell apoptosis and cell death in vitro in primary AML cells when SALL4 expression was reduced (FIG. 6B). In addition, there was an increased survival of leukemic recipient mice in vivo upon knocking down of SALL4 expression in these primary AML samples (FIG. 6C). 1.5×10^6 SALL4 shRNA or control retrovirus-treated primary human AML cells were transplanted into sublethally irradiated (1.0 Gy) NOD/SCID/IL2rγ-null mice by tail vein injection. Fatal AML with onset ranging from one to three months developed in all control recipient (7 out of 7) and some SALL4 shRNA recipient (2 out of 6) mice after transplantation. The transplanted leukemia disease was characterized by immature blasts with human CD45 expression in peripheral blood, bone marrow, and tissues such as liver and spleen (FIGS. 6C-6F). […] While the median survival of control recipient mice (N=7) was 33 days, the median survival of SALL4 shRNA recipient mice (N=6) was 109 days. Both the Log rank (also called Mantel-Cox, P=0.03 (FIG. 4H) and Gehan-Breslow-Wilcoxon (P=0.01)) tests were used for survival analysis and were statistically significant.
NSG (NOD.Cg-Prkdcscid Il2rgtm 1Wjl/SzJ, The Jackson Laboratory, ME, USA) mice were bred and maintained in the Children's Hospital Boston animal facility. All animal work has been approved by and done according to the guidelines of the IACUC under protocol 10-10-1832. Human primary AML cells exposed to various peptides or carrier only (1.0×10^6 cells per mouse) or transduced with SALL4-shRNA or control lentivirus (1.5×10^6 cell per mouse) were transplanted into 10- to 12-week old mice received 135 cGy sublethal irradiation 2-4 h before the injection via the dorsal tail vein. Mice were euthanized when they became ill or at 78 days post-transplantation. BM was removed from the two femurs by flushing with RPMI1640 medium, spleen cells were abstained by mincing and filtering through a cell strainer and peripheral blood was collected from the heart. […] The percentage of human CD45+ cells was calculated as follows: % human CD45+ cells=No. human CD45+ cells/(No. human CD45+ cells+No. mouse CD45+ cells)×100. […]
SALL4 is critical for leukemic cell survival in the AML cell line NB4 (Yang, et al., Blood, 112:805-813 (2008)). […] 48 hours after transduction, the viability of cells was determined by flow cytometry after staining with Annexin V and propidium iodide (PI). […]

| Substance | peptide uptake (cells with peptide) (AML3; AML3, no carrier) [%] | peptide uptake (cells with peptide) (AML3; AML3, with Chariot) [%] | peptide uptake (cells with peptide) (CD34+; no carrier) [%] | peptide uptake (cells with peptide) (CD34+; with Chariot) [%] | peptide uptake (cells with peptide) (HeLa; no carrier) [%] | peptide uptake (cells with peptide) (HeLa; with Chariot) [%] | peptide uptake (cells with peptide) (KG1a; no carrier) [%] | peptide uptake (cells with peptide) (KG1a; with Chariot) [%] | peptide uptake (cells with peptide) (MCF7; MCF7, no carrier) [%] | peptide uptake (cells with peptide) (MCF7; MCF7, with Chariot) [%] | peptide uptake (cells with peptide) (NP4; NP4, no carrier) [%] | peptide uptake (cells with peptide) (NP4; NP4, with Chariot) [%] | recipient mice without leukemia / still healthy (primary human AML cells; four months after transplantation) | recipient mice that developed fatal AML / leukemia (primary human AML cells; mouse, in vivo) | human CD45 positive cells in non-leukemic recipients (primary human AML cells; peripheral blood, bone marrow or spleen) | median survival of recipient mice (primary human AML cells; transduced primary human AML cells, tail vein) [days] |
| --- | --- | --- | --- | --- | --- | --- | --- | --- | --- | --- | --- | --- | --- | --- | --- | --- |
| H-MSRRKQAKPQHI-OH [wt peptide, MSRRKQAKPQHI] | ~5 | 50 | 0 | 50 | 0 | 80 | >10 | 60 | ~50 | 70 | >1 | >5 | – | – | – | – |
| GATGCCTTGAAACAAGCCAAGCTACCTCA (chemistry not given here) [compound 7412, SALL4 shRNA used in primary AML cells] | – | – | – | – | – | – | – | – | – | – | – | – | four out of six | 2 out of 6 | less than 0.5% | 109 |
